This is an account of results in patent publication US20230172940A1, “METHODS OF EXTENDING LIFESPAN BY ADMINISTERING FERROPTOSIS INHIBITORS” (COLLABORATIVE MEDICINAL DEVELOPMENT, LLC, priority 2020, published 2023).

For assay [1], the system named is Hydroxynonenal (4-HNE) protein adducts. Briefly: Lipid peroxidation: 4-HNE protein adducts (immunoblot). The assay is classed as in vivo, Caenorhabditis elegans. The settings on record: qualitative. As for the experimental part:
Analysis of Hydroxynonenal (4-HNE) protein adducts was also used as a proxy for lipid peroxidation. Duplicate samples of 50 and 200 worms were collected and washed twice in S-basal^o pelleted by centrifugation and the supernatant discarded. These samples (^˜30 μL) were frozen in liquid-N2 and stored at −80° C. until needed. To each sample an 10 μL 4× Bolt LDS sample buffer (Invitrogen) and 3 μL TCEP (Invitrogen) was added and the sample heated to 95° C. for 10 min. Lysates were loaded onto NuPAGE™ 4-12% Bis-Tris acrylamide gels (1.0 mm^o 10-well^o Invitrogen)^o electrophoresed with MES running buffer and then transferred onto 0.45 μm PVDF membrane by electroblot using a Mini Blot module (Invitrogen). 4-HNE protein adducts were detected by an anti 4-HNE protein adduct antibody (1:2000^o AB5605^o Millipore) in Tris-buffer saline with 5% skim milk^o and ECL (GE Healthcare). The membranes were stripped using a 1× ReBlot Strong Antibody Stripping Solution (Merck) for 15 min^o reprobed for tubulin using an anti-Tubulin antibody (1:10^o000^oT6074^o Sigma-Aldrich).
Background: In western blotting, separated proteins are transferred to a membrane and probed.

For assay [2], the system named is C. elegans strain TJ1060. Briefly: Parametric survival models (Weibull frailty), goodness of fit, combining replicates, meta-analysis. Also noted: species or system Caenorhabditis elegans. Here is the method: Parametric survival models with Weibull baseline hazards and Gamma frailty were fitted to replicate-specific data using the R package flexsurv. A likelihood ratio test was used to compare models that assume simple temporal rescaling to models that allow varying degrees of departure from temporal rescaling. The best model for each replicate was selected using a likelihood ratio test and the goodness of fit (GOF) of the best model is evaluated using a chi-square GOF test. To combine data across different replicates, we performed fixed-effect and random-effect meta-analyses for each parameter in the best model. Briefly, the fixed-effect meta-analysis estimates were derived using Inverse Variance Weighting (IVW) in which the estimates from each replicate were weighted by the inverse of their variance estimates. The meta-analysis estimates were then calculated simply as the weighted average of estimates from all replicates. The fixed-effect meta-analysis assumes that there is insignificant variation between the estimates of the same parameter across different replicates. The random-effect meta-analysis also derives the estimates by assigning weights to estimates from each replicate, but in this case the weights take into account the variation of estimates across replicates. […]

For assay [3], the system named is C. elegans strain TJ1060. Briefly: Lifespan determination. The assay is classed as in vivo, Caenorhabditis elegans. The settings on record: for average increase in median lifespan: 8 independent replicates, 200 μM Lip-1 or 250 μM SIH; for effect on survival curve: in vivo. Here is the method: Lifespan was measured using established protocols. SIH was dissolved in neat dimethyl sulfoxide (DMSO; Sigma-Aldrich) then added to the molten NGM at 55° C. (to a final concentration of 250 μM SIH in 0.5% v/v DMSO). Lip-1 was dissolved in neat DMSO then added to the molten NGM at 55° C. (to a final concentration of 200 μM Lip-1 in 0.5% v/v DMSO). Media containing equivalent vehicle alone (0.5% v/v DMSO) was used for comparison. Standard overnight culture of the Escherichia coli (E. coli) strain OP50 was used as the food source.
Lifespan data was collected at 25 (±1) ° C. using the temperature sensitive-sterile strain TJ1060 [spe-9(hc88); fer-15(b26)]. A synchronous population was obtained by transferring egg-laying adults to fresh plates at 16° C. for 2-3 hours. The adults were removed and the plates with eggs then transferred to 25° C. to ensure sterility. After 48 hours at 25° C., when worms were at the late L4/young adult stage, 25-35 nematodes were transferred to fresh plates containing either vehicle control, 250 μM SIH, or 200 μM Lip-1. All plates were coded to allowing blinding of the experimenter to the treatment regime during scoring. Nematodes were scored for survival at one to three-day intervals and transferred to freshly prepared plates as needed (2-5 days).
It is well documented that differences are observed between independent measures of lifespan, with micro-environmental factors such as minor temperature fluctuations potentially resulting differences in median and maximum lifespan between replicates. After determining the optimal doses of 250 μM SIH and 200 μM Lip-1, respectively, cohorts of nematodes were compared in 8 independent replicates. As the number of worms measured is known to influence the likelihood of accurately observing differences in lifespan, the starting populations for all treatments within experiments were in excess of 70 individuals.

Setting [4] is: 200 μM Lip-1, days of adulthood at 25 (±1)° C, single replicate experiments 1-8.
The mark [5] stands for this setting: 250 μM SIH, days of adulthood at 25 (±1)° C, single replicate experiments 1-8.

Values joined by “and” are separate entries in the source; they are usually repeats but may differ in a detail not shown here. Identical values can stand only once. Marks after values point to notes of the source that are not given here.

As to `Clc1cccc(CNC2=Nc3ccccc3NC23CCNCC3)c1` [Lip-1, N-[(3-chlorophenyl)methyl]-spiro[piperidine-4,2′(1′H)-quinoxalin]-3′-amine], the “increase in 4-HNE protein adducts with age” value in assay [1] was “suppressed”. The “rate of mortality in the post-reproductive period (late-life)” value in assay [2] is “markedly reduced”. Moreover, the “% median Ý, Mean of 8 replicates” value in assay [3] (200 μM Lip-1) is recorded as “+72%”. Moreover, in assay [3] (200 μM Lip-1, 25 (±1)° C), the “max. lifespan, Mean of 8 replicates” value is on record as 25 days and the “median lifespan, Mean of 8 replicates” value is 13 days. Further, in assay [3] (setting [4]), the max. lifespan was 25 days (2×) and 20 days and 24 days (2×) and 26 days (2×) and 27 days; the median lifespan is 13* days and 11† days and 14* days (4×) and 12* days and 15* days. The “% median Ý (median lifespan vs control)” value in assay [3] (200 μM Lip-1, single replicate experiments 1-8) was 86% and 38% and 56% (2×) and 100% and 50% and 114% and 75%. In addition, in assay [3], the “average increase in median lifespan” value is on record as roughly 70% and the “effect on survival curve” value is listed as “primarily altered late life survival”.
Consider `O=C(N/N=C/c1ccccc1O)c1ccncc1` [SIH, Salicylaldehyde isonicotinoyl hydrazone], for which the “increase in 4-HNE protein adducts with age” value in assay [1] is given as “suppressed”. The “risk of death (hazard) in early adulthood” value in assay [2] (compared to control populations, rose precipitously in late life) was “greatly reduced”. Moreover, the “% median Ý, Mean of 8 replicates” value in assay [3] (250 μM SIH) is “+101%”. Further, in assay [3] (250 μM SIH, 25 (±1)° C), the “max lifespan, Mean of 8 replicates” value is on record as 22 days and the “median lifespan, Mean of 8 replicates” value came to 16 days. For the same molecule, in assay [3] (setting [5]), the max lifespan was 19 days (2×) and 23 days and 20 days and 18 days and 24 days and 29 days and 26 days; the median lifespan was 14* days (4×) and 16* days (2×) and 17* days and 20* days. Also, the “% median Ý (median lifespan vs control)” value in assay [3] (250 μM SIH, single replicate experiments 1-8) was 100% and 75% (2×) and 78% and 129% and 56% and 143% and 150%. For the same molecule, in assay [3], the “average increase in median lifespan” value was roughly 100% and the “effect on survival curve” value is given as “extended mid-life with a squaring of the survival curve”.
